Source: US20250205312A1, “Orally Available Albenatide” (AlbuNext, LLC, priority 2023, published 2025)
Several values for one entry are separate records, joined by “and”; a condition that tells them apart may be missing. Identical values can stand only once.

System: db/db mice
Test: Pharmacodynamics study: blood glucose level-time profiles after single treatment
Type: in vivo
Conditions: SC 0.8 mg/kg
From the text: For pharmacodynamics studies, db/db mice were randomly divided into 5 groups (n=3). The test article preparation and dosing procedure followed the same way as described in PK study above. The study protocol is described in Table 6.

Question: For CJC-1134 [CJC-1134-SC], which “Blood Glucose AUC, Mean” value (db/db mice (n=3)) is on record?
Answer: The value was 364.1 mmol·h/L.

Question: And the “Blood Glucose Level, Mean” value (db/db mice (n=3), 0 h after fasting)?
Answer: Its value is 15.2 mmol/L.

Question: And the “Blood Glucose Level, Mean” value (db/db mice (n=3), 0.25 h)?
Answer: The value was 22.4 mmol/L.

Question: And the “Blood Glucose Level, Mean” value (db/db mice (n=3), 0.5 h)?
Answer: The value was 19.6 mmol/L.

Question: And the “Blood Glucose Level, Mean” value (db/db mice (n=3), 1 h)?
Answer: Its value is 14.6 mmol/L.

Question: And the “Blood Glucose Level, Mean” value (db/db mice (n=3), 3 h)?
Answer: The value was 13.5 mmol/L.

Question: What about the “Blood Glucose Level, Mean” value (db/db mice (n=3), 6 h) of the same substance?
Answer: The value was 16.3 mmol/L.

Question: What about the “Blood Glucose Level, Mean” value (db/db mice (n=3), 8 h) of the same substance?
Answer: The value was 13.0 mmol/L.

Question: What about the “Blood Glucose Level, Mean” value (db/db mice (n=3), 24 h) of the same substance?
Answer: The value was 17.4 mmol/L.

Question: And the “Blood Glucose Level” value (db/db mice, 0 h after fasting, individual mice, 0.8 mg/kg)?
Answer: Its value is 8.7 mmol/L and 16.4 mmol/L and 20.6 mmol/L.

Question: What about the “Blood Glucose Level” value (db/db mice, 0.25 h, individual mice, 0.8 mg/kg) of the same substance?
Answer: The value was 20.5 mmol/L and 21.2 mmol/L and 25.6 mmol/L.

Question: What about the “Blood Glucose Level” value (db/db mice, 0.5 h, individual mice, 0.8 mg/kg) of the same substance?
Answer: The value was 18.8 mmol/L and 21.0 mmol/L and 19.0 mmol/L.

Question: And the “Blood Glucose Level” value (db/db mice, 1 h, individual mice, 0.8 mg/kg)?
Answer: The value was 11.5 mmol/L and 16.5 mmol/L and 15.9 mmol/L.

Question: What about the “Blood Glucose Level” value (db/db mice, 3 h, individual mice, 0.8 mg/kg) of the same substance?
Answer: The value was 10.4 mmol/L and 14.0 mmol/L and 16.1 mmol/L.

Question: And the “Blood Glucose Level” value (db/db mice, 6 h, individual mice, 0.8 mg/kg)?
Answer: Its value is 12.7 mmol/L and 18.7 mmol/L and 17.5 mmol/L.

Question: What about the “Blood Glucose Level” value (db/db mice, 8 h, individual mice, 0.8 mg/kg) of the same substance?
Answer: The value was 11.3 mmol/L and 16.3 mmol/L and 11.4 mmol/L.

Question: And the “Blood Glucose Level” value (db/db mice, 24 h, individual mice, 0.8 mg/kg)?
Answer: The value was 17.0 mmol/L and 16.9 mmol/L and 18.4 mmol/L.

Question: What about the “Blood Glucose AUC” value (db/db mice, individual mice, 0.8 mg/kg) of the same substance?
Answer: Its value is 323.1 mmol·h/L and 399.5 mmol·h/L and 369.8 mmol·h/L.
